Assay results published in paper PMC9645410 (Chemical Science, 2022).

Target: GFPxm163 (Aequorea macrodactyla, UniProt Q8WTC8)
Test: fluorescence quenching titration
Type: binding

GFPxm163, sequence (Q8WTC8 1-238): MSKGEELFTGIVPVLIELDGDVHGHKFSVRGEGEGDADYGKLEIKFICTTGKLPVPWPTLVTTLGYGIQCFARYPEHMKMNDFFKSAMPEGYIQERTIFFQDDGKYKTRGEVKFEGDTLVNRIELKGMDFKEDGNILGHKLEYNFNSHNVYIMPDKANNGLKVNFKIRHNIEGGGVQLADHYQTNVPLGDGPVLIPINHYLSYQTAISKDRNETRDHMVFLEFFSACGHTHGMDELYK

| Compound | Kd |
| --- | --- |
| O=[N+]([O-])O [nitrate] | 24.1 ± 0.8 mM |
| I [iodide] | 6.4 ± 0.1 mM |
| Br [bromide] | 46.2 ± 5.3 mM |
